# Measured values reported in patent publication US10800752B2, “Substituted naphtho[2,3-b]furans as water-soluble prodrugs for preventing and/or treating cancer” (BOSTON BIOMEDICAL, INC., priority 2015, dated 2020).
# Counter-ions that a name gives are not always drawn.
# Columns and labels:
# [1] = Solubility test; settings: for solubility at 24 hours: pH 2, aqueous buffer, thermodynamic from solid; for solubility (in words): pH 2.0 buffer solution
# Method: A water-soluble prodrug was added into 50 mmol/L glycine buffer solution (pH 2.0). After shaking at room temperature for 24 hours, the mixture was filtered through a membrane filter, and then the filtrate was measured with HPLC.
# The measurement condition of HPLC is as described below. HPLC condition column: Acquity UPLC BEH C18, 1.7 um, 50×2.1 mm
# Mobile phase: A: 0.1% trifluoroacetic acid-containing water
# [2] = Evaluation of a conversion rate to 2-acetylnaphtho[2,3-b]furan-4,9-dione in pH 7.4 phosphate buffer solution; format: physicochemical
# Method: For test compounds, the decrease rate of the test compounds and the conversion rate thereof to 2-acetylnaphtho[2,3-b]furan-4,9-dione in human plasma, CD1 mouse plasma, and pH 7.4 phosphate buffer solution were measured.
# Test compounds were incubated at the concentration of 1 umol/L in human plasma (cat. no. 12250210, COSMO BIO), CD1 mouse plasma (cat. no. AP3054, KAC), and phosphate buffer solution at 37° C., and removed at predetermined times (0, 5, 10, 30, 60, and 120 minutes). After protein-removing treatment was performed, they are analyzed with LC-MS. It should be noted that the protein-removing treatment used acetonitrile containing: 10% volume of 1 mol/L hydrochloric acid; 1% volume of 46% citric acid; and phenytoin as an internal standard.
# The measurement condition of LC-MS is as described below. LC-MS condition column: Kinetex 2.6 u PFP 100 A 50×2.1 mm Column temperature: 40° C.
# Mobile phase: A: 0.1% formic acid-containing water
# • B: 0.1% formic acid-containing acetonitrile A/B(min): 95/5(0)→5/95(3)→5/95(4)→95/5(4.1)→95/5(6) Flow rate: 0.4 mL/min Detection: ESI (positive mode) Injection volume: 10 uL
# Measurement values are calculated from the peak area ratio in LC-MS between an internal standard material, phenytoin and an active form, 2-acetylnaphtho[2,3-b]furan-4,9-dione, and are expressed in %.
# In the same way as Example 6, the incubation time was set as 120 minutes later, and the conversion rate of each of various test compounds to 2-acetylnaphtho[2,3-b]furan-4,9-dione in human plasma, CD1 mouse plasma, and pH 7.4 phosphate buffer solution was measured. A series of the present compounds were confirmed to be converted to 2-acetylnaphtho[2,3-b]furan-4,9-dione in pH 7.4 phosphate buffer solution in addition to human plasma and CD1 mouse plasma. Therefore, a series of the test compounds of the present invention were confirmed to be converted to the activated form via a route other than an enzymatic conversion.
# [3] = Phosphate buffer solution (pH 7.4), 1 umol/L, 37° C., incubation time 120 min
# [4] = Phosphate buffer solution (pH 7.4), 1 umol/L, 37° C., incubation time 120 min, dimethanesulfonate salt monohydrate
# [5] = Phosphate buffer solution (pH 7.4), 1 umol/L, 37° C., incubation time 120 min, monohydrate
# [6] = Phosphate buffer solution (pH 7.4), 1 umol/L, 37° C., incubation time 120 min, monosulfate salt monohydrate
# [7] = Phosphate buffer solution (pH 7.4), 1 umol/L, 37° C., incubation time 120 min, trifluoroacetate salt monohydrate
compound,measurement,setting,value
"CC(=O)c1cc2c(OC(=O)C(C)(C)C)c3ccccc3c(OC(=O)C(C)(C)C)c2o1 [2-acetylnaphtho[2,3-b]furan-4,9-diyl bis(2,2-dimethylpropanoate), reference compound]",solubility at 24 hours,[1]; glycine buffer solution,< 0.1 µg/mL
same,solubility (in words),[1],very low solubility
"CCCCCCCC(=O)Oc1c2ccccc2c(OC(=O)CCCCCCC)c2oc(C(C)=O)cc12 [2-acetylnaphtho[2,3-b]furan-4,9-diyl dioctanoate, reference compound]",solubility at 24 hours,[1]; glycine buffer solution,< 0.1 µg/mL
same,solubility (in words),[1],very low solubility
"CC(=O)c1cc2c(OC(=O)NCCCN)c3ccccc3c(OC(=O)NCCCN)c2o1 [Example 1, 2-Acetylnaphtho[2,3-b]furan-4,9-diyl bis((3-aminopropyl)carbamate)dihydrochloride]","% Measurement value (conversion rate to 2-acetylnaphtho[2,3-b]furan-4,9-dione)",[2]; [3],79%
"CC(=O)c1cc2c(OC(=O)NCCN)c3ccccc3c(OC(=O)NCCN)c2o1 [Example 2, 2-Acetylnaphtho[2,3-b]furan-4,9-diyl bis((2-aminoethyl)carbamate)dihydrochloride]","% Measurement value (conversion rate to 2-acetylnaphtho[2,3-b]furan-4,9-dione)",[2]; [3],59%
"CN[C@@H](CCNC(=O)Oc1c2ccccc2c(OC(=O)NCC[C@@H](NC)C(=O)O)c2cc(C(C)=O)oc12)C(=O)O [Example 3, (S)-4-((((2-Acetyl-4-((((R)-3-carboxy-3-(methylamino)propyl)carbamoyl)oxy)naphtho[2,3-b]furan-9-yl)oxy)carbonyl)amino)-2-(methylamino)butanoic acid dihydrochloride]","% Measurement value (conversion rate to 2-acetylnaphtho[2,3-b]furan-4,9-dione)",[2]; [3],40%
"CC(=O)c1cc2c(OC(=O)NCCCN)c3ccccc3c(O)c2o1.Cl [Example 15, 2-Acetyl-9-hydroxynaphtho[2,3-b]furan-4-yl (3-aminopropyl)carbamate hydrochloride]","% Measurement value (conversion rate to 2-acetylnaphtho[2,3-b]furan-4,9-dione)",[2]; [3],100%
"CC(=O)c1cc2c(OC(=O)NCCNCCC(=O)O)c3ccccc3c(O)c2o1 [Example 17, 3-((2-((((2-Acetyl-9-hydroxynaphtho[2,3-b]furan-4-yl)oxy)carbonyl)amino)ethyl)amino)prop ionic acid hydrochloride]","% Measurement value (conversion rate to 2-acetylnaphtho[2,3-b]furan-4,9-dione)",[2]; [3],80%
"CC(=O)c1cc2c(O)c3ccccc3c(OC(=O)NCCCN)c2o1.Cl [Example 20, 2-Acetyl-4-hydroxynaphtho[2,3-b]furan-9-yl (3-aminopropyl)carbamate hydrochloride]","% Measurement value (conversion rate to 2-acetylnaphtho[2,3-b]furan-4,9-dione)",[2]; [3],57%
CC(=O)c1cc2c(OC(=O)NCCNCC(F)F)c3ccccc3c(OC(=O)NCCNCC(F)F)c2o1.Cl.Cl [Example 44],"% Measurement value (conversion rate to 2-acetylnaphtho[2,3-b]furan-4,9-dione)",[2]; pH 7.4,48%
"CC(=O)c1cc2c(OC(=O)NCCNCC(=O)O)c3ccccc3c(OC(=O)NCCNCC(=O)O)c2o1 [Example 93, 2,2′-((((((2-acetylnaphtho[2,3-b]furan-4,9-diyl)bis(oxy))bis(carbonyl))bis(azanediyl))bis(ethane-2,1-diyl))bis(azanediyl))diacetic acid monohydrochloride dihydrate]","% Measurement value (conversion rate to 2-acetylnaphtho[2,3-b]furan-4,9-dione)","[2]; Phosphate buffer solution (pH 7.4), 1 umol/L, 37° C., incubation time 120 min, monohydrochloride dihydrate",72%
"CC(=O)c1cc2c(OC(=O)NCCNCC(=O)O)c3ccccc3c(OC(=O)NCCNCC(=O)O)c2o1 [Example 94, 2,2′-((((((2-acetylnaphtho[2,3-b]furan-4,9-diyl)bis(oxy))bis(carbonyl))bis-(azanediyl))bis(ethane-2,1-diyl))bis(azanediyl))diacetic acid dimethanesulfonate salt monohydrate]","% Measurement value (conversion rate to 2-acetylnaphtho[2,3-b]furan-4,9-dione)",[2]; [4],53%
"CC(=O)c1cc2c(OC(=O)NCCNCC(=O)O)c3ccccc3c(OC(=O)NCCNCC(=O)O)c2o1 [Example 95, 2,2′-((((((2-acetylnaphtho[2,3-b]furan-4,9-diyl)bis(oxy))bis(carbonyl))bis(azanediyl))bis(ethane-2,1-diyl))bis(azanediyl))diacetic acid ditoluenesulfonate salt monohydrate]","% Measurement value (conversion rate to 2-acetylnaphtho[2,3-b]furan-4,9-dione)",[2]; [5],54%
"CC(=O)c1cc2c(OC(=O)NCCNCC(=O)O)c3ccccc3c(OC(=O)NCCNCC(=O)O)c2o1 [Example 97, 2,2′-((((((2-acetylnaphtho[2,3-b]furan-4,9-diyl)bis(oxy))bis(carbonyl))bis-(azanediyl))bis(ethane-2,1-diyl))bis(azanediyl))diacetic acid monosulfate salt monohydrate]","% Measurement value (conversion rate to 2-acetylnaphtho[2,3-b]furan-4,9-dione)",[2]; [6],61%
"CC(=O)c1cc2c(OC(=O)NCCNCC(=O)O)c3ccccc3c(OC(=O)NCCNCC(=O)O)c2o1 [Example 98, 2,2′-((((((2-acetylnaphtho[2,3-b]furan-4,9-diyl)bis(oxy))bis(carbonyl))bis(azanediyl))bis(ethane-2,1-diyl))bis(azanediyl))diacetic acid 1/3 trifluoroacetate salt monohydrate]",solubility at 24 hours,[1],> 5000 µg/mL
same,"% Measurement value (conversion rate to 2-acetylnaphtho[2,3-b]furan-4,9-dione)",[2]; [7],66%
"CC(=O)c1cc2c(OC(=O)NCCNCCC(=O)O)c3ccccc3c(OC(=O)NCCNCCC(=O)O)c2o1 [Example 99, 3,3′-((((((2-acetylnaphtho[2,3-b]furan-4,9-diyl)bis(oxy))bis(carbonyl))bis(azanediyl))bis(ethane-2,1-diyl))bis(azanediyl))dipropionic acid dimethanesulfonate salt monohydrate]","% Measurement value (conversion rate to 2-acetylnaphtho[2,3-b]furan-4,9-dione)",[2]; [4],60%
"CC(=O)c1cc2c(OC(=O)NCCNCCC(=O)O)c3ccccc3c(OC(=O)NCCNCCC(=O)O)c2o1 [Example 100, 3,3′-((((((2-acetylnaphtho[2,3-b]furan-4,9-diyl)bis(oxy))bis(carbonyl))bis(azanediyl))bis(ethane-2,1-diyl))bis(azanediyl))dipropionic acid ditoluenesulfonate salt monohydrate]","% Measurement value (conversion rate to 2-acetylnaphtho[2,3-b]furan-4,9-dione)",[2]; [5],76%
"CC(=O)c1cc2c(OC(=O)NCCNCCC(=O)O)c3ccccc3c(OC(=O)NCCNCCC(=O)O)c2o1 [Example 101, 3,3′-((((((2-acetylnaphtho[2,3-b]furan-4,9-diyl)bis(oxy))bis(carbonyl))bis(azanediyl))bis(ethane-2,1-diyl))bis(azanediyl))dipropionic acid dibenzenesulfonate salt]","% Measurement value (conversion rate to 2-acetylnaphtho[2,3-b]furan-4,9-dione)","[2]; Phosphate buffer solution (pH 7.4), 1 umol/L, 37° C., incubation time 120 min, dibenzenesulfonate salt",56%
"CC(=O)c1cc2c(OC(=O)NCCNCCC(=O)O)c3ccccc3c(OC(=O)NCCNCCC(=O)O)c2o1 [Example 102, 3,3′-((((((2-acetylnaphtho[2,3-b]furan-4,9-diyl)bis(oxy))bis(carbonyl))bis-(azanediyl))bis(ethane-2,1-diyl))bis(azanediyl))dipropionic acid monosulfate salt monohydrate]","% Measurement value (conversion rate to 2-acetylnaphtho[2,3-b]furan-4,9-dione)",[2]; [6],59%
"CC(=O)c1cc2c(OC(=O)NCCNCCC(=O)O)c3ccccc3c(OC(=O)NCCNCCC(=O)O)c2o1 [Example 103, 3,3′-((((((2-acetylnaphtho[2,3-b]furan-4,9-diyl)bis(oxy))bis(carbonyl))bis(azanediyl))bis(ethane-2,1-diyl))bis(azanediyl))dipropionic acid 1/3 trifluoroacetate salt monohydrate]","% Measurement value (conversion rate to 2-acetylnaphtho[2,3-b]furan-4,9-dione)",[2]; [7],53%
"COC(=O)[C@@H](N)CCNC(=O)Oc1c2ccccc2c(OC(=O)NCC[C@H](N)C(=O)OC)c2oc(C(C)=O)cc12 [Example 105, Dimethyl 4,4′-((((2-acetylnaphtho[2,3-b]furan-4,9-diyl)bis(oxy))bis(carbonyl))bis(azanediyl))(2S,2′S)-bis(2-aminobutanoate)ditoluenesulfonate salt monohydrate]",solubility at 24 hours,[1],> 5000 µg/mL
same,"% Measurement value (conversion rate to 2-acetylnaphtho[2,3-b]furan-4,9-dione)",[2]; [5],65%
"COC(=O)[C@@H](N)CCNC(=O)Oc1c2ccccc2c(OC(=O)NCC[C@H](N)C(=O)OC)c2oc(C(C)=O)cc12 [Example 106, Dimethyl 4,4′-((((2-acetylnaphtho[2,3-b]furan-4,9-diyl)bis(oxy))bis(carbonyl))bis(azanediyl))(2S,2′S)-bis(2-aminobutanoate)dibenzenesulfonate salt]",Solubility in pH 2.0 buffer solution,"[1]; 50 mmol/L glycine buffer solution (pH 2.0), room temperature, 24 hours shaking",>5.0 mg/mL
same,"% Measurement value (conversion rate to 2-acetylnaphtho[2,3-b]furan-4,9-dione)",[2]; [3],55%
"COC(=O)[C@@H](N)CCNC(=O)Oc1c2ccccc2c(OC(=O)NCC[C@H](N)C(=O)OC)c2oc(C(C)=O)cc12 [Example 107, Dimethyl 4,4′-((((2-acetylnaphtho[2,3-b]furan-4,9-diyl)bis(oxy))bis(carbonyl))bis(azanediyl))(2S,2′S)-bis(2-aminobutanoate) monosulfate salt monohydrate]","% Measurement value (conversion rate to 2-acetylnaphtho[2,3-b]furan-4,9-dione)",[2]; [6],50%
